Reference: patent publication US9023882B2, “5-membered nitrogen containing heterocyclic derivatives and pharmaceutical compositions comprising the same” (Kissei Pharmaceutical Co., Ltd., priority 2007, dated 2015)

What follows are compounds tested against Xanthine oxidase (from bovine milk, Sigma) (Bos taurus (Bovine), UniProt P80457) (assay: Xanthine oxidase inhibitory activity). Settings: 100 μM xanthine final, absorbance at 290 nm.
Sequence of Xanthine oxidase (from bovine milk, Sigma) (P80457 whole entry): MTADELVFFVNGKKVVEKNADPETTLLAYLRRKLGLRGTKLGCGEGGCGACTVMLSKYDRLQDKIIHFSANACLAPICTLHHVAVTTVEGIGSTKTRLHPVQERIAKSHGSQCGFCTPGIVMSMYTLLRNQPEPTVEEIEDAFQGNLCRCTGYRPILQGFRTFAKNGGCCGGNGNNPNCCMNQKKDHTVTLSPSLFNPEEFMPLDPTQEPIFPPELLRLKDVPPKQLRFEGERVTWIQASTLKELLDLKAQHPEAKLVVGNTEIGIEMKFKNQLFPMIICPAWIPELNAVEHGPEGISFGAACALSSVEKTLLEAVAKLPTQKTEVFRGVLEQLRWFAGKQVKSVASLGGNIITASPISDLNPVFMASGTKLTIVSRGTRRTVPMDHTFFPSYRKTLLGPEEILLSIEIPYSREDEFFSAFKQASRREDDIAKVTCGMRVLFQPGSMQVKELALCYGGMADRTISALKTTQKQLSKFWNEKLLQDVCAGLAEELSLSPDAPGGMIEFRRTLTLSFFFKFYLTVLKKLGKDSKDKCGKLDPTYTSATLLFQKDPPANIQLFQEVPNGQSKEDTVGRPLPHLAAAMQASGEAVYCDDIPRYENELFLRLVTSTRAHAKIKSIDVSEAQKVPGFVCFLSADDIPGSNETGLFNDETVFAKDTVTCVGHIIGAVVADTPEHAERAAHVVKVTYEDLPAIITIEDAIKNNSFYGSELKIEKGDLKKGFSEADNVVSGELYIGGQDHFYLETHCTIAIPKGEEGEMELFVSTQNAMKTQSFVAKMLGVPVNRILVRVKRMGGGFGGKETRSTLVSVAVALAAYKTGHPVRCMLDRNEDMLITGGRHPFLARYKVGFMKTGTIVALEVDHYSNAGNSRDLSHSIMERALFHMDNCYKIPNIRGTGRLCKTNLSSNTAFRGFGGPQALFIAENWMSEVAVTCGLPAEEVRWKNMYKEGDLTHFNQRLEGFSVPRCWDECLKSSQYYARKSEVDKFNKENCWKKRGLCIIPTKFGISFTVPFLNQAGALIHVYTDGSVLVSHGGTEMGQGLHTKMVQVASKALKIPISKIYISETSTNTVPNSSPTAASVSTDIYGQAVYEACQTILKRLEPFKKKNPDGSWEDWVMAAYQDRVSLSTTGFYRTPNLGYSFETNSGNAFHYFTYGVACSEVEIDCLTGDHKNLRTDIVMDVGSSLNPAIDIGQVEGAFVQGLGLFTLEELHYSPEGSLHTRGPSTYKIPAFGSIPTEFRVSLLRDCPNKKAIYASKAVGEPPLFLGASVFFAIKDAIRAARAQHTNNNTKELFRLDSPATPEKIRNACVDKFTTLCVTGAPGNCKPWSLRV
Format: biochemical
Procedure: (1) Preparation of Test Compounds
Test compounds were dissolved in DMSO (Wako) at 40 mM concentration and then diluted to intended concentrations with phosphate-buffered saline (PBS).
(2) Method for Measurement
Xanthine oxidase (from bovine milk, Sigma) was prepared with phosphate-buffered saline (PBS) at 0.02 units/mL, and then the solution was added to 96 well plates at 50 μL/well. In addition, test compounds diluted with PBS were added at 50 μL/well. Xanthine (Wako) at 200 μM prepared with PBS was added at 100 μL/well, and the reaction was conducted for 10 minutes at room temperature. Absorbance at 290 nm was measured using a microplate reader SpectraMax Plus 384 (Molecular device). The absorbance under a condition without xanthine is 0%, and control without test compounds is 100%. Fifty % inhibitory concentration of a test compound (IC50) was calculated (Tables 91 to 92). Ex. No in the table indicates Example number.
Work on `N#Cc1cn(-c2ccc(C(=O)O)c(O)c2)cc1/C=C/c1ccccc1` [Example 288] yielded an IC50 of 10.4 nM. Work on `Cc1ccccc1-c1cn(-c2cc(C(=O)O)ccn2)cc1C#N` [Example 361] yielded an IC50 of 88.5 nM. `Cc1cccc(-c2cn(-c3cc(C(=O)O)ccn3)cc2C#N)c1` [Example 362] showed an IC50 of 25.6 nM. With `N#Cc1cn(-c2ccc(C(=O)O)c(O)c2)cc1-c1ccccc1-c1ccccc1` [Example 328] the IC50 was 9.3 nM. `N#Cc1cn(-c2ccc(C(=O)O)c(O)c2)cc1-c1ccccc1Cl` [Example 308] gave an IC50 of 7.5 nM. `COCCOc1cccc(-c2cn(-c3ccc(C(=O)O)c(O)c3)cc2C#N)c1` [Example 345] was tested, and the IC50 was 25.7 nM. `COc1ccccc1-c1cn(-c2ccc(C(=O)O)c(O)c2)cc1C#N` [Example 309] showed an IC50 of 6.5 nM. Compound `N#Cc1cn(-c2ccc(C(=O)O)c(O)c2)cc1-c1ccc2c(c1)OCCO2` [Example 305] has an IC50 of 7.3 nM. `N#Cc1cn(-c2ccc(C(=O)O)c(O)c2)cc1-c1ccccc1OCc1ccccc1` [Example 332] gave an IC50 of 51.5 nM. Work on `COc1ccc(/C=C/c2cn(-c3ccc(C(=O)O)c(O)c3)cc2C#N)cc1` [Example 295] yielded an IC50 of 28.8 nM. Work on `CCOc1cccc(-c2cn(-c3ccc(C(=O)O)c(O)c3)cc2C#N)c1` [Example 344] yielded an IC50 of 13.5 nM. In the case of `N#Cc1cn(-c2cc(C(=O)O)ccn2)cc1-c1ccccc1Cl` [Example 364], the IC50 is reported as 22.7 nM. `N#Cc1cn(-c2ccc(C(=O)O)c(O)c2)cc1-c1csc2ccccc12` [Example 291] showed an IC50 of 6.4 nM. Compound `N#Cc1cn(-c2ccc(C(=O)O)c(O)c2)cc1-c1ccc(Cl)cc1` [Example 315] has an IC50 of 14.6 nM. `N#Cc1cn(-c2ccc(C(=O)O)c(O)c2)cc1-c1ccc(C(=O)O)cc1` [Example 337] showed an IC50 of 4 nM. `Cc1ccsc1-c1cn(-c2ccc(C(=O)O)c(O)c2)cc1C#N` [Example 311] was tested, and the IC50 was 6.9 nM. `CCCOc1ccc(-c2cn(-c3ccc(C(=O)O)c(O)c3)cc2C#N)cc1` [Example 342] showed an IC50 of 35.9 nM. In the case of `O=C(O)c1ccc(-n2cc(C(=O)O)c(C(F)(F)F)c2)cc1O` [Example 297], the IC50 is reported as 18.9 nM. `COc1ccc(-c2cn(-c3ccc(C(=O)O)c(O)c3)cc2C#N)cc1` [Example 316] was tested, and the IC50 was 9 nM. Work on `COc1ccc(-c2cn(-c3ccc(C(=O)O)c(O)c3)cc2C#N)c(C)c1` [Example 276] yielded an IC50 of 7.7 nM. `N#Cc1cn(-c2cc(C(=O)O)ccn2)cc1-c1ccc(Cl)cc1` [Example 365] showed an IC50 of 33.1 nM. With `COc1cn(-c2ccc(C(=O)O)c(O)c2)cc1C#N` [Example 282] the IC50 was 5.3 nM. Compound `CCOc1ccccc1-c1cn(-c2ccc(C(=O)O)c(O)c2)cc1C#N` [Example 335] has an IC50 of 7.9 nM. `N#Cc1cn(-c2ccc(C(=O)O)c(O)c2)cc1-c1ccc(O)cc1` [Example 339] showed an IC50 of 4.4 nM. `N#Cc1cn(-c2ccc(C(=O)O)c(O)c2)cc1-c1ccc(COc2ccccc2)cc1` [Example 334] gave an IC50 of 59.5 nM. `COc1ccccc1/C=C/c1cn(-c2ccc(C(=O)O)c(O)c2)cc1C#N` [Example 293] gave an IC50 of 15.9 nM. `COc1ccc(-c2cn(-c3ccc(C(=O)O)c(O)c3)cc2C#N)cc1OC` [Example 285] gave an IC50 of 3.9 nM. `N#Cc1cn(-c2ccc(C(=O)O)c(O)c2)cc1-c1cccc(O)c1` [Example 338] gave an IC50 of 5.7 nM. `COc1cccc(-c2cn(-c3ccc(C(=O)O)c(O)c3)cc2C#N)c1` [Example 279] was tested, and the IC50 was 8.4 nM. `N#Cc1cn(-c2ccc(C(=O)O)c(O)c2)nc1-c1ccccc1` [Example 302] was tested, and the IC50 was 4.9 nM. Work on `N#Cc1cn(-c2ccc(C(=O)O)c(O)c2)cc1-c1ccccc1C(F)(F)F` [Example 312] yielded an IC50 of 9.9 nM. Work on `COCCOc1ccc(-c2cn(-c3ccc(C(=O)O)c(O)c3)cc2C#N)cc1` [Example 347] yielded an IC50 of 12.2 nM. `N#Cc1cn(-c2ccc(C(=O)O)c(O)c2)cc1-c1ccccc1Oc1ccccc1` [Example 303] gave an IC50 of 49.4 nM. In the case of `COc1ccc(CCc2cn(-c3ccc(C(=O)O)c(O)c3)cc2C#N)cc1` [Example 296], the IC50 is reported as 5.6 nM. For `CC(C)(C)c1nn(-c2ccc(C(=O)O)c(O)c2)cc1C#N` [Example 352], the IC50 was 3.2 nM.

Same assay, conditions: 0.02 units/mL, xanthine 200 μM, 10 minutes at room temperature, absorbance at 290 nm
Compound `N#Cc1cn(-c2ccc(C(=O)O)cc2)cc1-c1cccc(OCc2cccc(Cl)c2)c1` [Example 193] has an IC50 of 70.4 nM. With `N#Cc1cn(-c2ccc(C(=O)O)cc2)cc1-c1cccc(OCCCCO)c1` [Example 200] the IC50 was 5.9 nM. In the case of `N#Cc1cn(-c2ccc(C(=O)O)cc2)cc1-c1ccccc1OCCCO` [Example 149], the IC50 is reported as 6 nM. Work on `N#Cc1cn(-c2ccc(C(=O)O)c(O)c2)cc1-c1cc(F)cc(F)c1` [Example 271] yielded an IC50 of 15.1 nM. Compound `N#Cc1cn(-c2ccc(C(=O)O)cc2)cc1-c1cccc(OCc2ccsc2)c1` [Example 174] has an IC50 of 17.6 nM. In the case of `CN(Cc1ccccc1)C(=O)c1cn(-c2ccc(C(=O)O)cc2)cc1C#N` [Example 228], the IC50 is reported as 4.6 nM. For `N#Cc1cn(-c2ccc(C(=O)O)cc2)cc1-c1cccn1Cc1ccccc1` [Example 256], the IC50 was 15.2 nM. For `N#Cc1cn(-c2ccc(C(=O)O)cc2)cc1-c1ccc2ccccc2c1` [Example 250], the IC50 was 25.6 nM. In the case of `N#Cc1cn(-c2ccc(C(=O)O)cc2)cc1C(=O)NCc1ccccc1` [Example 227], the IC50 is reported as 3.6 nM. In the case of `CN(C)/C=N/c1nn(-c2ccc(C(=O)O)cc2)cc1C#N` [Example 261], the IC50 is reported as 5.3 nM. In the case of `N#Cc1cn(-c2ccc(C(=O)O)cc2)cc1COCc1ccccc1` [Example 248], the IC50 is reported as 11.9 nM. `Cc1cccc(COc2ccccc2-c2cn(-c3ccc(C(=O)O)cc3)cc2C#N)c1` [Example 168] gave an IC50 of 70 nM. Work on `CCCCc1cn(-c2ccc(C(=O)O)cc2)cc1C#N` [Example 240] yielded an IC50 of 3.3 nM. `N#Cc1cn(-c2ccc(C(=O)O)cc2)cc1-c1cccc(OCc2ccc(F)cc2)c1` [Example 191] showed an IC50 of 90.3 nM. `COc1ccccc1COc1ccccc1-c1cn(-c2ccc(C(=O)O)cc2)cc1C#N` [Example 183] showed an IC50 of 67.3 nM. For `N#Cc1cn(-c2ccc(C(=O)O)cc2)cc1Cc1ccccc1` [Example 235], the IC50 was 8.6 nM. Work on `N#Cc1cn(-c2ccc(C(=O)O)cc2)cc1-c1ccc(OCCO)cc1` [Example 154] yielded an IC50 of 4 nM. In the case of `N#Cc1cn(-c2ccc(C(=O)O)cc2)cc1-c1ccccc1O` [Example 146], the IC50 is reported as 4 nM. With `N#Cc1cn(-c2ccc(C(=O)O)cc2)cc1CCC1CCCO1` (stereo not shown) [Example 259] the IC50 was 4.7 nM. Compound `N#Cc1cn(-c2ccc(C(=O)O)cc2)cc1-c1cccc(OCCOc2ccccc2)c1` [Example 216] has an IC50 of 20.9 nM. Compound `N#Cc1cn(-c2ccc(C(=O)O)cc2)nc1NC(=O)c1ccccc1` [Example 262] has an IC50 of 3.1 nM. With `CCOC(=O)c1cn(-c2ccc(C(=O)O)cc2)cc1C(F)(F)F` [Example 221] the IC50 was 45.4 nM. In the case of `CC(C)Cc1cn(-c2ccc(C(=O)O)cc2)cc1C#N` [Example 241], the IC50 is reported as 3.6 nM. Compound `N#Cc1cn(-c2ccc(C(=O)O)cc2)cc1-c1ccc(C(=O)O)cc1` [Example 210] has an IC50 of 5.1 nM. Compound `CC(=O)Nc1nn(-c2ccc(C(=O)O)cc2)cc1C#N` [Example 27, 4-(3-Acetylamino-4-cyanopyrazole-1-yl)benzoic acid] has an IC50 of 7.1 nM. In the case of `N#Cc1cn(-c2ccc(C(=O)O)cc2)cc1-c1cccc2c1OC(F)(F)O2` [Example 254], the IC50 is reported as 6.9 nM. `N#Cc1cn(-c2ccc(C(=O)O)c(O)c2)cc1-c1cccc(F)c1F` [Example 270] was tested, and the IC50 was 24.2 nM. Compound `Cc1cn(-c2ccc(C(=O)O)cc2)cc1C#N` [Example 236] has an IC50 of 81.2 nM. `N#Cc1cn(-c2ccc(C(=O)O)c(F)c2)cc1-c1ccccc1` [Example 208] was tested, and the IC50 was 5.2 nM. Compound `N#Cc1cn(-c2ccc(C(=O)O)cc2)cc1-c1ccc(OCC(=O)O)cc1` [Example 160] has an IC50 of 2.1 nM. `Cc1ccccc1COc1ccccc1-c1cn(-c2ccc(C(=O)O)cc2)cc1C#N` [Example 167] was tested, and the IC50 was 83.8 nM. For `N#Cc1cn(-c2ccc(C(=O)O)cc2)cc1-c1ccccc1OCc1ccccc1` [Example 155], the IC50 was 52.4 nM. Work on `Cc1c(F)cccc1-c1cn(-c2ccc(C(=O)O)c(O)c2)cc1C#N` [Example 275] yielded an IC50 of 7.2 nM. Work on `CCCCCCc1cn(-c2ccc(C(=O)O)cc2)cc1C#N` [Example 246] yielded an IC50 of 8.9 nM. Compound `COCCOc1ccccc1-c1cn(-c2ccc(C(=O)O)c(O)c2)cc1C#N` [Example 15, 4-{3-Cyano-4-[2-(2-methoxyethoxy)phenyl]pyrrole-1-yl}-2-hydroxy benzoic acid] has an IC50 of 13.9 nM. `N#Cc1cn(-c2ccc(C(=O)O)cc2)cc1C(=O)N1CCCCC1` [Example 231] gave an IC50 of 7 nM. Compound `N#Cc1cn(-c2ccc(C(=O)O)cc2)cc1-c1cccc(OCCO)c1` [Example 153] has an IC50 of 2.4 nM. `CCCCCCCc1cn(-c2ccc(C(=O)O)cc2)cc1C#N` [Example 247] showed an IC50 of 8.9 nM. In the case of `CC(C)COc1cn(-c2ccc(C(=O)O)cc2)cc1C#N` [Example 233], the IC50 is reported as 2.3 nM. Compound `N#Cc1cn(-c2ccc(C(=O)O)cc2)cc1-c1ccccc1OCc1ccsc1` [Example 176] has an IC50 of 13.7 nM. `N#Cc1cn(-c2ccc(C(=O)O)cc2)cc1-c1ccccc1OCc1ccccc1Cl` [Example 177] showed an IC50 of 54.4 nM. Compound `N#Cc1nn(-c2ccc(C(=O)O)cc2)cc1-c1ccc2c(c1)OCO2` [Example 249] has an IC50 of 9.4 nM. For `COCCOc1cccc(-c2cn(-c3ccc(C(=O)O)cc3)cc2C#N)c1` [Example 202], the IC50 was 6 nM. In the case of `N#Cc1cn(-c2ccc(C(=O)O)cc2)nc1OCc1ccccc1` [Example 7, 4-(3-Benzyloxy-4-cyanopyrazole-1-yl)benzoic acid], the IC50 is reported as 5.8 nM. For `N#Cc1cn(-c2ccc(C(=O)O)cc2)cc1-c1cccc(C(=O)O)c1` [Example 217], the IC50 was 5 nM. Compound `N#Cc1cn(-c2ccc(C(=O)O)cc2)cc1-c1ccccc1OCCCCO` [Example 199] has an IC50 of 19.2 nM. `N#Cc1cn(-c2ccc(C(=O)O)cc2)cc1C(=O)N1CCOCC1` [Example 232] showed an IC50 of 26.9 nM.
